This is an account of results in patent publication US20220267277A1, “DOPAMINE RECEPTOR D1 AGONISTS AND METHODS OF USE” (Sanford Burnham Prebys Medical Discovery Institute, priority 2019, published 2022).

One assay concerns YAP/TAZ. As to the kind of experiment: Inhibition of YAP/TAZ (Example B-1, Table 4). It is filed as cell-based. An excerpt:
(§1) Example B-1: Enzyme Assay of Inhibition of YAP/TAZ and DR1

A further assay deals with T1, DR1 (Homo sapiens, UniProt P21728).
T1 construct: endogenous in cells; host or cells: IPF patient derived fibroblasts
The experiment in a line: DR1 agonism EC50 (Example B-1, Table 4). It is filed as cell-based. How it is done:
cAMP Assay: IPF patient derived fibroblasts are plated in EMEM containing 10% FBS overnight. […] Twenty minutes prior to cell lysis the media is removed and cells are treated with “induction buffer” containing nonselective phosphodiesterase inhibitors and the indicated concentration of compound(s). Luminescence is measured on a Flexstation 3 (Molecular Devices) plate reader.
as §1

A further assay has as its system Col1a1. The following applies: 10 μM; precision cut lung slices cultured for 3 days; aged mice (24 months) injured with bleomycin.
The subject of assay [1] is YAP/TAZ nuclear localization in human lung fibroblasts. As to the kind of experiment: YAP/TAZ nuclear localization in human lung fibroblasts (FIG. 1).

Read-outs that look alike come from different tables or passages of the source. Bounds are passed on as bounds.

T1 sequence (P21728 whole entry): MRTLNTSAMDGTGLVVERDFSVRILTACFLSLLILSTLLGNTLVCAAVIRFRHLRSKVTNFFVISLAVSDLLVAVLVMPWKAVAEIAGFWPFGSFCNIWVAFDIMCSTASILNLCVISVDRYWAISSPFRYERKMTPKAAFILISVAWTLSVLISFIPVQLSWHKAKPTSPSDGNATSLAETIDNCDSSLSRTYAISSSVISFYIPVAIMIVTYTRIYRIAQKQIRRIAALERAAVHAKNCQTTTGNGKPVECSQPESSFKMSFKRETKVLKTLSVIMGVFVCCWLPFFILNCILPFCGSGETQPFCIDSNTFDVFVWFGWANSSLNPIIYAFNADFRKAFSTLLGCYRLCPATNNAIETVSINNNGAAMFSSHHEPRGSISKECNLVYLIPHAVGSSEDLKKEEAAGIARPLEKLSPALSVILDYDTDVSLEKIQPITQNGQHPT

The IC50 is the concentration that inhibits the measured activity by half. Read a high IC50 as weaker potency in that assay. A word on the EC50: it is the concentration giving half of the maximal effect. On to `CCCc1csc2c1C(c1ccc(OC)c(OC)c1)CNC2` (centres unmarked) [4-(3,4-dimethoxyphenyl)-3-propyl-4,5,6,7-tetrahydrothieno[2,3-c]pyridine], for which the IC50 with YAP/TAZ lay within 1000 to 20000 nM. Also, the EC50 at DR1 (read-out: DR1 EC50) lay in the range of 1000 to 20000 nM. On to `Cc1cc2c(cc1O)CN[C@H]1CCc3cc(O)c(O)cc3[C@H]21` (relative stereo) [Compound 3, Trans-(6a,12b)-2-methyl-5,6,6a,7,8,12b-hexahydro-benzo[a]phenanthridine-3,10,11-triol], for which, in the assay with Col1a1, the “expression of Col1a1” value is “inhibits expression of Col1a1”. In addition, the “inhibition of YAP/TAZ nuclear localization” value in assay [1] is listed as “inhibit YAP/TAZ nuclear localization”. In the assay with YAP/TAZ, `Oc1ccc([C@H]2CNCc3sccc32)cc1O` [(R)-4-(4,5,6,7-tetrahydrothieno[2,3-c]pyridin-4-yl)benzene-1,2-diol] gave an IC50 of 1000 to 20000 nM. For the same compound, the EC50 at DR1 (read-out: DR1 EC50) was below 1000 nM.

Consider `COc1cc(C2CNCc3sccc32)cc(Cl)c1OC` (centres unmarked) [4-(3-chloro-4,5-dimethoxyphenyl)-4,5,6,7-tetrahydrothieno[2,3-c]pyridine], for which the IC50 in the assay with YAP/TAZ was 1000 to 20000 nM. At DR1 (read-out: DR1 EC50), the EC50 lay in the range of 1000 to 20000 nM. Regarding `CCCc1csc2c1[C@H](c1ccc(O)c(O)c1)CNC2` [(S)-4-(3-propyl-4,5,6,7-tetrahydrothieno[2,3-c]pyridin-4-yl)benzene-1,2-diol], in the assay on YAP/TAZ, the IC50 was in the range of 1000 to 20000 nM. Further, at DR1 (read-out: DR1 EC50), the EC50 lay within 1000 to 20000 nM. The compound `COc1ccc(C2CNCc3sccc32)cc1OC` (centres unmarked) [4-(3,4-dimethoxyphenyl)-4,5,6,7-tetrahydrothieno[2,3-c]pyridine] returned an IC50 in the assay with YAP/TAZ of 1000 to 20000 nM. In addition, the concentration for a half-maximal effect (EC50) on DR1 (read-out: DR1 EC50) fell in the range of 1000 to 20000 nM. Turning to `COc1c(O)cc(C2CNCc3sccc32)cc1Cl` (centres unmarked) [3-chloro-2-methoxy-5-(4,5,6,7-tetrahydrothieno[2,3-c]pyridin-4-yl)phenol], the IC50 in the assay on YAP/TAZ lay within 1000 to 20000 nM. Also, the EC50 on DR1 (read-out: DR1 EC50) is 1000 to 20000 nM. Compound `Oc1ccc(C2CNCc3cnccc32)cc1O` (centres unmarked) [4-(1,2,3,4-tetrahydro-2,7-naphthyridin-4-yl)benzene-1,2-diol] came in with an IC50 in the assay on YAP/TAZ of 1000 to 20000 nM. As for `Oc1ccc([C@@H]2CNCc3sccc32)cc1O` [(S)-4-(4,5,6,7-tetrahydrothieno[2,3-c]pyridin-4-yl)benzene-1,2-diol], in the assay on YAP/TAZ, the IC50 fell in the range of 1000 to 20000 nM. The EC50 at DR1 (read-out: DR1 EC50) is below 1000 nM. As for “(6aR,12bS)-10,11-dimethoxy-2-methyl-5,6,6a,7,8,12b-hexahydrobenzo[a]phenanthridin-3-ol [Compound 4a]”, the “inhibition of YAP/TAZ nuclear localization” value in assay [1] is listed as “inhibit YAP/TAZ nuclear localization”. In turn, `CCCc1csc2c1[C@@H](c1ccc(O)c(O)c1)CNC2` [(R)-4-(3-propyl-4,5,6,7-tetrahydrothieno[2,3-c]pyridin-4-yl)benzene-1,2-diol] yielded an IC50 in the assay with YAP/TAZ of 1000 to 20000 nM. Moreover, the EC50 at DR1 (read-out: DR1 EC50) is 1000 to 20000 nM.

On to `CCCc1csc2c1C(c1ccc(O)c(O)c1)CNC2` (centres unmarked) [4-(3-propyl-4,5,6,7-tetrahydrothieno[2,3-c]pyridin-4-yl)benzene-1,2-diol], for which the half-maximal inhibitory concentration (IC50) with YAP/TAZ was in the range of 1000 to 20000 nM. Further, the EC50 at DR1 (read-out: DR1 EC50) was 1000 to 20000 nM.

On to `Oc1cc2c(cc1O)[C@@H]1c3ccc(O)c(O)c3CN[C@@H]1CC2` [(6aR,12bR)-5,6,6a,7,8,12b-hexahydrobenzo[a]phenanthridine-3,4,10,11-tetraol], for which the IC50 in the assay with YAP/TAZ fell in the range of 1000 to 20000 nM. The compound `Oc1ccc2c(c1)[C@@H]1c3cc(O)c(O)cc3CC[C@H]1NC2` [(6aR,12bS)-5,6,6a,7,8,12b-hexahydrobenzo[a]phenanthridine-2,10,11-triol] had an IC50 in the assay with YAP/TAZ of 1000 to 20000 nM. In addition, at DR1, the EC50 is below 1000 nM.

Compound `Cc1cc2c(cc1O)CN[C@H]1CCc3cc(O)c(O)cc3[C@H]21` [(6aS,12bR)-2-methyl-5,6,6a,7,8,12b-hexahydrobenzo[a]phenanthridine-3,10,11-triol] came in with an IC50 in the assay on YAP/TAZ of 1000 to 20000 nM. Besides, the concentration giving a half-maximal response (EC50) at DR1 is below 1000 nM. Take `Oc1cc2c(cc1O)[C@H]1c3ccc(O)c(O)c3CN[C@@H]1CC2` [(6aR,12bS)-5,6,6a,7,8,12b-hexahydrobenzo[a]phenanthridine-3,4,10,11-tetraol]: in the assay on YAP/TAZ, the IC50 was 1000 to 20000 nM. The compound `CN1Cc2sccc2C(c2ccc(O)c(O)c2)C1` (centres unmarked) [4-(6-methyl-4,5,6,7-tetrahydrothieno[2,3-c]pyridin-4-yl)benzene-1,2-diol] had a 50% inhibitory concentration (IC50) in the assay on YAP/TAZ of 1000 to 20000 nM. In addition, at DR1 (read-out: DR1 EC50), the EC50 was in the range of 1000 to 20000 nM. `Oc1cc(C2CNCc3sccc32)cc(Cl)c1O` (centres unmarked) [3-chloro-5-(4,5,6,7-tetrahydrothieno[2,3-c]pyridin-4-yl)benzene-1,2-diol] had a half-maximal inhibitory concentration (IC50) in the assay with YAP/TAZ of 1000 to 20000 nM. Further, the EC50 on DR1 (read-out: DR1 EC50) was below 1000 nM.
